From publication PMC10747733, “N-Substituted 2-(Benzenosulfonyl)-1-Carbotioamide Derivatives Exert Antimicrobial and Cytotoxic Effects via Aldehyde Dehydrogenase Pathway: Synthesis, In Silico and In Vitro Studies” (Pharmaceuticals, 2023)
≈ marks a conversion by molar mass, not a printed value. Entries after “also recorded” stand apart in the source; their conditions may differ.

What was measured:
ALDH1A1 = ALDH1A1 concentration by ELISA in Du145 cells; assay type: cell-based, human
Description: The effect of compounds WZ1–WZ4 on ALDHA1 levels was investigated (Figure 10). The Du145, HepG2 and 769-P cell lines were treated with the calculated IC25 values for each compound.
Selected cell lines, viz HepG2, Du145 and 769-P, were seeded into 6-well plates and incubated for 24 h after seeding with compounds at a concentration equal to IC25. After a further 24 h or 48 h, cells were detached with trypsin and centrifuged. The resulting cell pellet was resuspended in 0.5 mL PBS. The samples were then sonicated, and protein was determined using the Bradford method (Bio-rad; Hercules, CA, USA). Samples were equilibrated to 10 mg/mL of protein, and ALDH1A1 was determined in the samples prepared in this way. ALDH1A1 determination was performed using an ELISA (SEE824Hu; Cloud Clone Corp., Katy, TX, USA), according to the manufacturer’s protocol.

[1] = test system: Bordetella bronchiseptica ATCC 4617; experiment: Broth microdilution antimicrobial activity; assay type: cell-based
Source text: (§1) Reference strains of microorganisms that came from American Type Culture Collection (ATCC) (Manassas, VA, USA) were used for this study. The representative Gram-positive bacteria were as follows: Staphylococcus aureus ATCC 25923, Staphylococcus aureus ATCC 29213, Staphylococcus aureus ATCC 43300, Staphylococcus epidermidis ATCC 12228, Enterococcus faecalis ATCC 29212, Micrococcus luteus ATCC 10240, Bacillus subtilis ATCC 6633 and Bacillus cereus ATCC 10876. While, those of Gram-negative bacteria were as follows: Bordetella bronchiseptica ATCC 4617, Escherichia coli ATCC 25922, Klebsiella pneumoniae ATCC 13883, Proteus mirabilis ATCC 12453, Salmonella Typhimurium ATCC 14028 and Pseudomonas aeruginosa ATCC 9027. Moreover, the following fungi belonging to yeasts were used: Candida albicans ATCC 10231, Candida albicans ATCC 2091, Candida parapsilosis ATCC 22019, Candida glabrata ATCC 90030 and Candida krusei ATCC 14243.
(§2) The new compounds WZ1–WZ4 were assayed for both antibacterial and antifungal activity using the broth microdilution method in accordance with the European Committee on Antimicrobial Susceptibility Testing (EUCAST) and Clinical and Laboratory Standards Institute (CLSI) guidelines. The microorganisms were grown at 35 °C for 18–24 h on appropriate media (nutrient agar and Sabouraud for bacteria and fungi, respectively) (BioMaxima S.A., Lublin, Poland). Next, microbial suspensions with an optical density of 0.5 McFarland standard scale (in sterile 0.85% NaCl) were prepared. In turn, the tested compounds were initially diluted at 50 mg/mL in dimethyl sulfoxide (DMSO) and the broth microdilution method was used to assess their minimum inhibitory concentrations (MICs). For these studies, selective broth Mueller-Hinton (MH) (BioMaxima S.A., Lublin, Poland) and RPMI (Roswell Park Memorial Institute) 1640 with MOPS (3-(N-Morpholino)propanesulfonic acid) (Sigma-Aldrich Chemicals, St. Louis, MO, USA) were used for bacteria and fungi, respectively. The antimicrobial effect of compounds WZ1–WZ4 was determined in the concentration range from 2000 to 0.98 µg/mL.
(§3) Then, the microbial suspensions were introduced into each well of the microplate and incubated for 18–24 h at 35 °C. […] The reference drugs ciprofloxacin or vancomycin (against bacteria) and nystatin (against fungi) (Sigma-Aldrich Chemicals, St. Louis, MO, USA) were also used. Next, the values of the minimum bactericidal concentration (MBC) and minimum fungicidal concentration (MFC) of WZ1–WZ4 were assessed. For this purpose, the cultures from each MIC determination well were transferred to a suitable solid medium and incubated under appropriate conditions. The lowest concentrations of compounds without microbial growth were read as MBC or MFC. The studies were performed in triplicate and representative data were gathered.
(§4) In turn, the MBC/MIC or MFC/MIC ratios were used to assess bactericidal/fungicidal (MBC/MIC or MFC/MIC ≤ 4) and bacteriostatic/fungistatic (MBC/MIC or MFC/MIC > 4) effect of these compounds [93].

[2] = test system: Candida albicans ATCC 10231; experiment: Broth microdilution antimicrobial activity; assay type: cell-based
Source text: as §1, §2, §3, §4

[3] = test system: Staphylococcus epidermidis ATCC 12228; experiment: Broth microdilution antimicrobial activity; assay type: cell-based
Source text: as §1, §2, §3, §4

[4] = test system: Staphylococcus aureus ATCC 25923; experiment: Broth microdilution antimicrobial activity; assay type: cell-based
Source text: as §1, §2, §3, §4

[5] = test system: Staphylococcus aureus ATCC 29213; experiment: Broth microdilution antimicrobial activity; assay type: cell-based; settings: Staphylococcus aureus ATCC 29213
Source text: as §1, §2, §3, §4

[6] = test system: Pseudomonas aeruginosa ATCC 9027; experiment: Broth microdilution antimicrobial activity; assay type: cell-based
Source text: as §1, §2, §3, §4

[7] = test system: Candida glabrata ATCC 90030; experiment: Broth microdilution antimicrobial activity; assay type: cell-based
Source text: as §1, §2, §3, §4

[8] = test system: Bacillus cereus ATCC 10876; experiment: Broth microdilution antimicrobial activity; assay type: cell-based
Source text: as §1, §2, §3, §4

[9] = test system: Candida parapsilosis ATCC 22019; experiment: Broth microdilution antimicrobial activity; assay type: cell-based
Source text: as §1, §2, §3, §4

[10] = test system: Proteus mirabilis ATCC 12453; experiment: Broth microdilution antimicrobial activity; assay type: cell-based
Source text: as §1, §2, §3, §4

[11] = test system: Bacillus subtilis ATCC 6633; experiment: Broth microdilution antimicrobial activity; assay type: cell-based
Source text: as §1, §2, §3, §4

[12] = test system: Staphylococcus aureus ATCC 43300; experiment: Broth microdilution antimicrobial activity; assay type: cell-based; settings: Staphylococcus aureus ATCC 43300
Source text: as §1, §2, §3, §4

[13] = test system: Candida albicans ATCC 2091; experiment: Broth microdilution antimicrobial activity; assay type: cell-based
Source text: as §1, §2, §3, §4

[14] = test system: Salmonella Typhimurium ATCC 14028; experiment: Broth microdilution antimicrobial activity; assay type: cell-based
Source text: as §1, §2, §3, §4

## CNC(=S)NNS(=O)(=O)c1ccccc1 [WZ4, 2-(Benzenesulfonyl)-N-Methylhydrazine-1-Carbothioamide]
ALDH1A1; compound at IC25, 24 h
  ALDH1A1 concentration compared to control: decrease
ALDH1A1; compound at IC25, 48 h
  ALDH1A1 concentration compared to control: decrease; also recorded: significantly reduced
[1]
  MBC/MIC: > 1
[1]; ATCC4617
  MBC: > 2000 µg/mL
  MIC: > 2000 µg/mL
[2]
  MFC/MIC: 2
[2]; ATCC10231, read-out: MFC
  MFC: 1000 µg/mL (≈ 4080 µM)
[2]; ATCC10231, read-out: MIC
  MIC: 500 µg/mL (≈ 2040 µM)
[3]
  MBC/MIC: 4
[3]; ATCC12228
  MBC: 500 µg/mL (≈ 2040 µM)
  MIC: 125 µg/mL (≈ 510 µM)
[4]
  MBC/MIC: > 4
[4]; ATCC25923
  MBC: > 2000 µg/mL
  MIC: 500 µg/mL (≈ 2040 µM)
[5]; ATCC29213
  MBC: > 2000 µg/mL
  MIC: 1000 µg/mL (≈ 4080 µM)
[5]
  MBC/MIC: > 2
[6]
  MBC/MIC: > 1
[6]; ATCC9027
  MBC: > 2000 µg/mL
  MIC: > 2000 µg/mL
[7]
  MFC/MIC: 4
[7]; Nakaseomyces glabratus, ATCC90030, read-out: MFC
  MFC: 500 µg/mL (≈ 2040 µM)
[7]; Nakaseomyces glabratus, ATCC90030, read-out: MIC
  MIC: 125 µg/mL (≈ 510 µM)
[8]
  MBC/MIC: 2
[8]; ATCC10876
  MBC: 125 µg/mL (≈ 510 µM)
  MIC: 62.5 µg/mL (≈ 255 µM)
[9]
  MFC/MIC: 8
[9]; Lodderomyces parapsilosis, ATCC22019, read-out: MFC
  MFC: 1000 µg/mL (≈ 4080 µM)
[9]; Lodderomyces parapsilosis, ATCC22019, read-out: MIC
  MIC: 125 µg/mL (≈ 510 µM)
[10]
  MBC/MIC: > 1
[10]; ATCC12453
  MBC: > 2000 µg/mL
  MIC: > 2000 µg/mL
[11]
  MBC/MIC: 16
[11]; ATCC6633
  MBC: 2000 µg/mL (≈ 8150 µM)
  MIC: 125 µg/mL (≈ 510 µM)
[12]; ATCC43300
  MBC: 2000 µg/mL (≈ 8150 µM)
  MIC: 500 µg/mL (≈ 2040 µM)
[12]
  MBC/MIC: 4
[13]
  MFC/MIC: 4
[13]; ATCC2091, read-out: MFC
  MFC: 1000 µg/mL (≈ 4080 µM)
[13]; ATCC2091, read-out: MIC
  MIC: 250 µg/mL (≈ 1020 µM)
[14]
  MBC/MIC: > 1
[14]; Salmonella enterica
  MBC: > 2000 µg/mL
  MIC: > 2000 µg/mL
